The values that follow come from ChEMBL document CHEMBL3714728, “Substituted benzoylamino-indan-2-carboxylic acids and related compounds” (2010).

Where only a bound is given, the exact number is not on record here.

The IC50 is the concentration at which inhibition is half-maximal.

The target in the experiment is T1, C-X-C chemokine receptor type 5 (Homo sapiens, UniProt P32302).
T1 sequence (P32302 whole entry): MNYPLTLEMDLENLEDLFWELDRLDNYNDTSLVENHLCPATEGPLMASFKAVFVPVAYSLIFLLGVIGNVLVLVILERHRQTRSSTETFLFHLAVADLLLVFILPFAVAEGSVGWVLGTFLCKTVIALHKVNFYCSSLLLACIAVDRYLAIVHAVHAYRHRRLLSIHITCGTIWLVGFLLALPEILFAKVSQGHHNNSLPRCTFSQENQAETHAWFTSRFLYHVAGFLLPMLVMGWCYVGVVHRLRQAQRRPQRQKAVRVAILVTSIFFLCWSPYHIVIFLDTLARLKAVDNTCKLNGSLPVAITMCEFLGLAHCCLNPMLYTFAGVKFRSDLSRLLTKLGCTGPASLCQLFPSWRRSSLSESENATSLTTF
The experiment can be described thus: Antagonist activity against human CXCR5 expressed in RBL cells assessed as inhibition of human CXCL13-induced intracellular Ca2+ level by fluo-4/AM dye based FLIPR assay. The format is functional, cell-based.

As to `Cc1cccc(C(=O)NC2(C(=O)O)Cc3ccc(C(=O)O)cc3C2)c1OC(C)C` (stereo unspecified), the IC50 was above 30 µM.

`CCOc1ccc2ccccc2c1C(=O)NC1(C(=O)O)Cc2ccccc2C1`: the IC50 was 19.6 µM.

`Cc1cccc(C(=O)NC2(C(=O)O)Cc3ccc(C#N)cc3C2)c1OC1CCC1` (stereo unspecified): the IC50 is 10.1 µM.

Consider `Cc1cccc(C(=O)NC2(C(=O)O)Cc3ccc(C(N)=O)cc3C2)c1OC1CCC1` (stereo unspecified), for which the IC50 is above 30 µM.

`Cc1cccc(C(=O)NC2(C(=O)O)Cc3ccc(C(F)(F)F)cc3C2)c1OC1CCC1` (stereo unspecified): the IC50 was found to be 7.8 µM.

As for `O=C(NC1(C(=O)O)Cc2ccccc2C1)c1cccc2c1OCCO2`, the IC50 is above 30 µM.

For the compound `Cc1cccc(C(=O)NC2(C(=O)O)Cc3ccccc3C2)c1C1=CCCC1`, the IC50 worked out at 0.056 µM.

Turning to `Cc1cccc(C(=O)NC2(C(=O)O)Cc3ccc(C(F)(F)F)cc3C2)c1OC(C)C` (stereo unspecified), the IC50 stood at 14.8 µM.

Regarding `C/C=C/c1c(C)cccc1C(=O)NC1(C(=O)O)Cc2ccc(F)cc2C1` (stereo unspecified), the IC50 was 0.2 µM.

Regarding `O=C(O)c1ccc2c(c1)CC(NC(=O)c1cccc3c1CCCC3)(C(=O)O)C2` (stereo unspecified), the IC50 was above 30 µM.

`Cc1cccc(C(=O)NC2(C(=O)O)Cc3ccccc3C2)c1OCC1CC1`: the IC50 is 2.93 µM.

In the case of `Cc1cc2c(cc1C)CC(NC(=O)c1cccc(C)c1OC(C)C)(C(=O)O)C2`, the IC50 turned out to be 27 µM.

In the case of `C=CCOc1c(Cl)cc(Cl)cc1S(=O)(=O)NC1(C(=O)O)Cc2ccccc2C1`, the IC50 is 13 µM.

For the compound `O=C(NC1(C(=O)O)Cc2ccccc2C1)c1cc(F)cc2c1OCOC2`, the IC50 came out at 30 µM.

Take `O=C(NC1(C(=O)O)Cc2ccccc2C1)c1cccc2ccccc12`: the IC50 is 5.45 µM.

As for `CCCC#Cc1c(C)cccc1C(=O)NC1(C(=O)O)Cc2ccccc2C1`, the half-maximal inhibitory concentration (IC50) worked out at 19.3 µM.

Consider `Cc1cccc(C(=O)NC2(C(=O)O)Cc3ccccc3C2)c1C1=CCCCC1`, for which the IC50 was 1.05 µM.

Turning to `C/C=C/c1c(C)cccc1C(=O)NC1(C(=O)O)Cc2ccccc2C1`, the IC50 stood at 0.232 µM.

Turning to `CCCc1c(C)cccc1C(=O)NC1(C(=O)O)Cc2ccc(F)cc2C1` (stereo unspecified), the IC50 turned out to be 0.047 µM.

For `Cc1cccc(C(=O)NC2(C(=O)O)Cc3ccc(C(N)=O)cc3C2)c1OC(C)C` (stereo unspecified), the IC50 was above 30 µM.

As for `CCCC(CC)c1c(C)cccc1C(=O)NC1(C(=O)O)Cc2ccccc2C1` (stereo unspecified), the IC50 came to 3.87 µM.

With `O=C(NC1(C(=O)O)Cc2ccc(F)cc2C1)c1cc(Cl)cc(Cl)c1OC1CCC1` (stereo unspecified), the IC50 is 0.268 µM.

With `Cc1cccc(C(=O)NC2(C(=O)O)Cc3ccccc3C2)c1C1CCCC1`, the IC50 is 0.533 µM.

Regarding `Cc1cccc(C(=O)NC2(C(=O)O)Cc3ccc(C#N)cc3C2)c1OC(C)C` (stereo unspecified), the IC50 was 20.5 µM.

For `CC(C)=Cc1c(C)cccc1C(=O)NC1(C(=O)O)Cc2cc(F)c(F)cc2C1`, the half-inhibitory concentration (IC50) was found to be 0.015 µM.

Regarding `O=C(NC1(C(=O)O)Cc2ccccc2C1)c1cccc2cccnc12`, the IC50 is above 30 µM.

For the compound `O=C(NC1(C(=O)O)Cc2ccccc2C1)c1ccc(F)c2ccccc12`, the IC50 worked out at 13 µM.

For the compound `CCCCCc1c(C)cccc1C(=O)NC1(C(=O)O)Cc2ccccc2C1`, the IC50 is 2.3 µM.

For `CCC/C=C/c1c(C)cccc1C(=O)NC1(C(=O)O)Cc2ccccc2C1`, the IC50 was found to be 0.446 µM.

`Cc1cccc(C(=O)NC2(C(=O)O)Cc3ccccc3C2)c1CC(C)C`: the IC50 was found to be 0.014 µM.

`O=C(O)C1(NS(=O)(=O)c2cccc3cccnc23)Cc2ccccc2C1`: the IC50 was above 30 µM.

Consider `COc1ccc2c(c1)CC(NC(=O)c1cccc(C)c1OC(C)C)(C(=O)O)C2` (stereo unspecified), for which the IC50 worked out at 18.2 µM.

Take `Cc1cccc(C(=O)NC2(C(=O)O)Cc3ccc(F)cc3C2)c1OC(C)C` (stereo unspecified): the IC50 is 0.537 µM.

As for `Cc1cccc(C(=O)NC2(C(=O)O)CCSCC2)c1OC(C)C`, the IC50 is 24 µM.

In the case of `CC(C)=Cc1c(C)cccc1C(=O)NC1(C(=O)O)Cc2ccc(Cl)cc2C1` (stereo unspecified), the IC50 worked out at 0.009 µM.

For `Cc1cccc(C(=O)NC2(C(=O)O)Cc3ccc(C(=O)O)cc3C2)c1OC1CCC1` (stereo unspecified), the IC50 was above 30 µM.

Turning to `CC(C)Oc1c(Cl)cc(Cl)cc1S(=O)(=O)NC1(C(=O)O)Cc2ccccc2C1`, the IC50 was 16 µM.

`COc1ccc2c(c1)CC(NC(=O)c1cccc3c1CCCC3)(C(=O)O)C2` (stereo unspecified): the concentration for half-maximal inhibition (IC50) worked out at 9.5 µM.

`O=C(NC1(C(=O)O)Cc2ccccc2C1)c1cccc2c1CCCC2`: the IC50 came to 0.675 µM.

`CCC(C)Oc1c(C)cccc1C(=O)NC1(C(=O)O)Cc2ccccc2C1` (stereo unspecified): the IC50 worked out at 1.08 µM.

As to `CC(C)=Cc1c(C)cccc1C(=O)NC1(C(=O)O)Cc2ccccc2C1`, the IC50 was 0.033 µM.

On to `O=C(NC1(C(=O)O)Cc2ccccc2C1)c1cccc2cc[nH]c12`, for which the IC50 was above 30 µM.

As for `O=C(NC1(C(=O)O)Cc2ccccc2C1)c1cnc2ccccc2n1`, the IC50 is above 30 µM.

For `O=C(NC1(C(=O)O)Cc2ccc(F)cc2C1)c1cccc2c1CCCC2` (stereo unspecified), the IC50 worked out at 0.298 µM.

For `Cc1cccc(C(=O)NC2(C(=O)O)Cc3ccc(F)cc3C2)c1OC1CCC1` (stereo unspecified), the IC50 turned out to be 0.38 µM.

Consider `Cc1cccc(C(=O)NC2(C(=O)O)Cc3ccc(F)cc3C2)c1CC(C)C` (stereo unspecified), for which the IC50 came out at 0.015 µM.

Turning to `CC(C)=Cc1c(C(=O)NC2(C(=O)O)Cc3ccccc3C2)cccc1C(F)(F)F`, the IC50 came out at 0.026 µM.

For `CC/C=C(/CC)c1c(C)cccc1C(=O)NC1(C(=O)O)Cc2ccccc2C1`, the IC50 was 15.2 µM.

Regarding `CC(C)=Cc1c(C)cccc1C(=O)NC1(C(=O)O)Cc2c(F)ccc(F)c2C1`, the IC50 was found to be 0.038 µM.

On to `NC(=O)c1ccc2c(c1)CC(NC(=O)c1cccc3c1CCCC3)(C(=O)O)C2` (stereo unspecified), for which the IC50 was above 30 µM.

As for `CCCc1c(C)cccc1C(=O)NC1(C(=O)O)Cc2cc(F)c(F)cc2C1`, the IC50 is 0.045 µM.

As for `C=CCOc1c(Cl)cccc1C(=O)NC1(C(=O)O)Cc2ccccc2C1`, the IC50 came out at 3.65 µM.

For `Cc1cccc(C(=O)NC2(C(=O)O)Cc3ccc(F)cc3C2)c1C1=CCCC1` (stereo unspecified), the 50% inhibitory concentration (IC50) was determined as 0.013 µM.

Consider `Cc1cccc(C(=O)NC2(C(=O)O)Cc3c(C)sc(C)c3C2)c1OC(C)C`, for which the IC50 is 17.4 µM.

As to `Cc1cccc(C(=O)NC2(C(=O)O)Cc3ccccc3C2)c1CCC1CC1`, the IC50 was 0.097 µM.

With `O=C(NC1(C(=O)O)Cc2ccccc2C1)c1cccc2[nH]ccc12`, the IC50 was above 30 µM.

Consider `CCC/C=C\c1c(C)cccc1C(=O)NC1(C(=O)O)Cc2ccccc2C1`, for which the IC50 is 0.099 µM.

Consider `N#Cc1ccc2c(c1)CC(NC(=O)c1cccc3c1CCCC3)(C(=O)O)C2` (stereo unspecified), for which the IC50 was determined as 30 µM.

With `Cc1cccc(C(=O)NC2(C(=O)O)Cc3ccccc3C2)c1/C=C/C1CC1`, the IC50 amounted to 8.2 µM.

With `Cc1cccc(C(=O)NC2(C(=O)O)Cc3ccccc3C2)c1OC1CCC1`, the IC50 was found to be 0.47 µM.

Consider `O=C(NC1(C(=O)O)Cc2ccccc2C1)c1cncc2ccccc12`, for which the concentration for half-maximal inhibition (IC50) is above 30 µM.

With `CC(C)=Cc1c(C)cccc1C(=O)NC1(C(=O)O)Cc2ccc(F)cc2C1` (stereo unspecified), the IC50 was 0.011 µM.

In the case of `Cc1cccc(C(=O)N(C)C2(C(=O)O)Cc3ccccc3C2)c1OC(C)C`, the IC50 is above 30 µM.

Turning to `Cc1cccc(C(=O)NC2(C(=O)O)Cc3cc(F)c(F)cc3C2)c1CC(C)C`, the IC50 came to 0.017 µM.

Take `O=C(NC1(C(=O)O)Cc2ccccc2C1)c1cccc2c1NCCC2`: the IC50 is above 30 µM.

For the compound `Cc1sc(C)c2c1CC(NC(=O)c1cccc3c1CCCC3)(C(=O)O)C2`, the IC50 stood at 2.85 µM.

On to `CC(C)=Cc1c(C)cccc1C(=O)NC1(C(=O)O)Cc2ccc(F)c(F)c2C1` (stereo unspecified), for which the IC50 was found to be 0.005 µM.

Regarding `CCCc1c(C)cccc1C(=O)NC1(C(=O)O)Cc2ccccc2C1`, the IC50 amounted to 0.023 µM.

As for `O=C(NC1(C(=O)O)Cc2ccc(C(F)(F)F)cc2C1)c1cccc2c1CCCC2` (stereo unspecified), the IC50 amounted to 6.1 µM.

For the compound `Cc1cccc(C(=O)N[C@@]2(C(=O)O)Cc3ccc(F)cc3C2)c1CC(C)C` (single isomer, unassigned), the IC50 was found to be 0.007 µM.

In the case of `Cc1cccc(C(=O)N[C@]2(C(=O)O)Cc3ccc(F)cc3C2)c1CC(C)C` (single isomer, unassigned), the IC50 is 0.03 µM.
